4 molecules from patent US11000033B2, “Ketone or oxime compound, and herbicide” (NISSAN CHEMICAL CORPORATION, priority 2014, dated 2021) can be followed below.

What all share (type): in vivo
For data set [1], the system named is Scirpus juncoides. In words: Test Example 1: herbicidal activity, application before weed generation in submerged conditions (symbol B). As to conditions: application herbicide amount 320 g/ha. The essentials: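 0–5 visual score, 3 wk post-application. Submerged pots, alluvial soil, water 4 cm; seeds sown mixed, rice at 2.5 leaves transplanted. Emulsion diluted to predetermined dose, applied to water surface at sowing. 25–30 °C greenhouse.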

Data set [2] has as its system Echinochloa oryzacola Vasing. In words: Test Example 2: herbicidal activity, application during weed generation in submerged conditions (symbol A). As to conditions: Table 23; application herbicide amount 320 g/ha; grade 0-5 by criteria of Test Example 1. Summed up: (§1)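 Compound was applied as a water-diluted emulsion into the standing water of flooded pots (4 cm) once co-sown weeds reached one to two leaves. Greenhouse temperature was 25° C. to 30° C., soil was alluvial, and each species was rated visually after 3 weeks.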

Data set [3] concerns Scirpus juncoides. The data set can be described thus: Test Example 2: herbicidal activity, application during weed generation in submerged conditions (symbol B). As to conditions: Table 23; application herbicide amount 320 g/ha; grade 0-5 by criteria of Test Example 1. Summed up:
as §1

The subject of data set [4] is Echinochloa crus-galli var. crus-galli. The data set can be described thus: Test Example 3: herbicidal effect by foliage application, Wagner pot (symbol H). As to conditions: application herbicide amount 320 g/ha. The essentials: (§2)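 In a shallow-flooded alluvial soil system held at 25–30 °C, plants including rice grew for 14 days and were then sprayed over the foliage with emulsion diluted to a fixed herbicide amount. Visual rating followed at 3 weeks.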

The next data set has as its system Cyperus difformis. The data set can be described thus: Test Example 3: herbicidal effect by foliage application, Wagner pot (symbol E). As to conditions: application herbicide amount 320 g/ha. Summed up:
as §2

Another data set relates to Setaria viridis. In words: Test Example 4: herbicidal effect by soil treatment (symbol G). As to conditions: for G: Setaria viridis, herbicidal effect grade: 320 g/ha. Summed up: (§3)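 Seeds were sown in sterilized diluvial soil, covered with about 1.5 cm of soil, and the soil surface was sprayed with a water-diluted emulsion of the compound at a predetermined rate. Plants grew in a greenhouse at 25° C. to 30° C.; effects were scored visually 3 weeks after application.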

For another data set, the system named is Avena fatua. In words: Test Example 4: herbicidal effect by soil treatment (symbol I). As to conditions: for I: Avena fatua, herbicidal effect grade: 320 g/ha. The essentials: as §3
Data set [5] has as its system Alopecurus myosuroides. In words: Test Example 4: herbicidal effect by soil treatment (symbol J). As to conditions: for J: Alopecurus myosuroides, herbicidal effect grade: 320 g/ha. The essentials:
as §3

For data set [6], the system named is Apera spica-venti. In words: Test Example 4: herbicidal effect by soil treatment (symbol L). As to conditions: for L: Apera spica-venti, herbicidal effect grade: 320 g/ha. Summed up:
as §3

For a further data set, the system named is Abutilon theophrasti. The data set can be described thus: Test Example 4: herbicidal effect by soil treatment (symbol M). As to conditions: for M: Abutilon theophrasti, herbicidal effect grade: 320 g/ha. The essentials:
as §3

The next data set relates to Chenopodium album. In words: Test Example 4: herbicidal effect by soil treatment (symbol O). As to conditions: for O: Chenopodium album, herbicidal effect grade: 320 g/ha. The essentials: as §3
The subject of the next data set is Veronica persica. The data set can be described thus: Test Example 4: herbicidal effect by soil treatment (symbol R). As to conditions: for R: Veronica persica, herbicidal effect grade: 320 g/ha. Summed up: as §3
Data set [7] deals with Alopecurus myosuroides. In words: Test Example 5: herbicidal effect by foliage application, plastic box (symbol J). As to conditions: 320 g/ha, 3 weeks after application. The essentials:
(§4)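 After sowing into sterilized diluvial soil and growing two weeks under glass at 25° C. to 30° C., seedlings receive a uniform foliar spray of diluted emulsion. Damage is judged visually three weeks on.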

Data set [8] relates to Apera spica-venti. The data set can be described thus: Test Example 5: herbicidal effect by foliage application, plastic box (symbol L). As to conditions: 320 g/ha, 3 weeks after application. Summed up:
as §4

Another data set relates to corn. In words: Test Example 5: effect on crop by foliage application, plastic box (symbol c). As to conditions: 320 g/ha, 3 weeks after application. The essentials:
(§5)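 Foliage-application test plants come from spot sowing in sterilized diluvial soil under a soil layer of about 1.5 cm, grown at 25° C. to 30° C. in a greenhouse.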

A further data set concerns rapeseed. The data set can be described thus: Test Example 5: effect on crop by foliage application, plastic box (symbol g). As to conditions: 320 g/ha, 3 weeks after application. The essentials: as §5
[9] abbreviates: application herbicide amount 320 g/ha.

With `Cc1cc(C)c(C2=C(O)CC(CC(=NOCC(F)(F)F)C3CC3)C2=O)c(C)c1` (stereo not shown) [1-131], the “Herbicidal effect grade, B: Scirpus juncoides” value (shortened to “Herbicidal effect grade, B”) with Scirpus juncoides [1] was 4 (Herbicidal ratio of 70% or higher and lower than 90%); with Scirpus juncoides [3] it was 4 (Herbicidal ratio of 70% or higher and lower than 90%). Further, the “Herbicidal effect grade, A: Echinochloa oryzacola Vasing.” value in [2] was 4 (Herbicidal ratio of 70% or higher and lower than 90%). The “herbicidal effect on H (Echinochloa crus-galli var. crus-galli), grade 0-5” value (from here on “herbicidal effect on H”) in data set [4] is listed as 5 (Herbicidal ratio of 90% or more (almost completely withered)). Besides, in the data set on Cyperus difformis, the “herbicidal effect on E, grade 0-5” value was 5 (Herbicidal ratio of 90% or more (almost completely withered)). Moreover, the “G: Setaria viridis, herbicidal effect grade” value in the data set with Setaria viridis was 5 (Herbicidal ratio of 90% or more (almost completely withered)). Moreover, the “I: Avena fatua, herbicidal effect grade” value in the data set on Avena fatua was 3 (Herbicidal ratio of 40% or higher and lower than 70%). Besides, in the data set with Alopecurus myosuroides [5], the “J: Alopecurus myosuroides, herbicidal effect grade” value is recorded as 5 (Herbicidal ratio of 90% or more (almost completely withered)). The “L: Apera spica-venti, herbicidal effect grade” value in the data set on Apera spica-venti [6] is on record as 5 (Herbicidal ratio of 90% or more (almost completely withered)). Further, in the data set on Abutilon theophrasti, the “M: Abutilon theophrasti, herbicidal effect grade” value is 0 (Herbicidal ratio of 5% or lower (almost no effect)). Moreover, the “O: Chenopodium album, herbicidal effect grade” value with Chenopodium album is 0 (Herbicidal ratio of 5% or lower (almost no effect)). Moreover, in the data set on Veronica persica, the “R: Veronica persica, herbicidal effect grade” value was 3 (Herbicidal ratio of 40% or higher and lower than 70%). For the same molecule, the “J: Alopecurus myosuroides, herbicidal effect (criteria 0-5)” value in the data set with Alopecurus myosuroides [7] was 5 (Herbicidal ratio of 90% or more (almost completely withered)). The “L: Apera spica-venti, herbicidal effect (criteria 0-5)” value (shortened to “L: Apera spica-venti … (criteria 0-5)”) with Apera spica-venti [8] is listed as 5 (Herbicidal ratio of 90% or more (almost completely withered)). Moreover, the “c: corn, effect on crop (criteria 0-5)” value with corn is 3 (Herbicidal ratio of 40% or higher and lower than 70%). The “g: rapeseed, effect on crop (criteria 0-5)” value (“g: rapeseed … (criteria 0-5)” for short) with rapeseed was 5 (Herbicidal ratio of 90% or more (almost completely withered)).

On to `CON=C(C)CC1CC(OC(=O)c2cnoc2C2CC2)=C(c2c(C)cc(C)cc2C)C1=O` (stereo not shown) [1-103], for which the “Herbicidal effect grade, B” value with Scirpus juncoides [1] was 5 (Herbicidal ratio of 90% or more (almost completely withered)); with Scirpus juncoides [3], 4 (Herbicidal ratio of 70% or higher and lower than 90%). Further, the “Herbicidal effect grade, A: Echinochloa oryzacola Vasing.” value in [2] is 5 (Herbicidal ratio of 90% or more (almost completely withered)). Further, in [4], the “herbicidal effect on H” value is recorded as 5 (Herbicidal ratio of 90% or more (almost completely withered)). Also, in the data set on Cyperus difformis, the “herbicidal effect on E, grade 0-5” value was 5 (Herbicidal ratio of 90% or more (almost completely withered)). In addition, in the data set on Setaria viridis, the “G: Setaria viridis, herbicidal effect grade” value is 5 (Herbicidal ratio of 90% or more (almost completely withered)). Besides, in the data set on Avena fatua, the “I: Avena fatua, herbicidal effect grade” value was 3 (Herbicidal ratio of 40% or higher and lower than 70%). For the same molecule, the “J: Alopecurus myosuroides, herbicidal effect grade” value in the data set with Alopecurus myosuroides [5] is 5 (Herbicidal ratio of 90% or more (almost completely withered)). Besides, the “L: Apera spica-venti, herbicidal effect grade” value in the data set on Apera spica-venti [6] was 4 (Herbicidal ratio of 70% or higher and lower than 90%). Moreover, the “M: Abutilon theophrasti, herbicidal effect grade” value in the data set with Abutilon theophrasti was 5 (Herbicidal ratio of 90% or more (almost completely withered)). Further, the “O: Chenopodium album, herbicidal effect grade” value in the data set on Chenopodium album is recorded as 0 (Herbicidal ratio of 5% or lower (almost no effect)). For the same molecule, in the data set with Veronica persica, the “R: Veronica persica, herbicidal effect grade” value is 0 (Herbicidal ratio of 5% or lower (almost no effect)). Also, the “J: Alopecurus myosuroides, herbicidal effect (criteria 0-5)” value in the data set with Alopecurus myosuroides [7] is on record as 5 (Herbicidal ratio of 90% or more (almost completely withered)). Also, the “L: Apera spica-venti … (criteria 0-5)” value in the data set on Apera spica-venti [8] is reported as 5 (Herbicidal ratio of 90% or more (almost completely withered)). Moreover, the “c: corn, effect on crop (criteria 0-5)” value with corn is given as 5 (Herbicidal ratio of 90% or more (almost completely withered)). For the same molecule, in the data set with rapeseed, the “g: rapeseed … (criteria 0-5)” value was 4 (Herbicidal ratio of 70% or higher and lower than 90%).

`CC(CC1CC(O)=C(c2c(C)cc(C)cc2C)C1=O)=NOCc1cccc(Cl)c1` (stereo not shown) [1-114]: the “Herbicidal effect grade, B” value was 5 (Herbicidal ratio of 90% or more (almost completely withered)) with Scirpus juncoides [1]; 3 (Herbicidal ratio of 40% or higher and lower than 70%) with Scirpus juncoides [3]. In addition, in [2], the “Herbicidal effect grade, A: Echinochloa oryzacola Vasing.” value was 4 (Herbicidal ratio of 70% or higher and lower than 90%). Also, the “herbicidal effect on H” value in [4] is 5 (Herbicidal ratio of 90% or more (almost completely withered)). Besides, the “herbicidal effect on E, grade 0-5” value in the data set on Cyperus difformis is 2 (Herbicidal ratio of 20% or higher and lower than 40%). Further, in the data set on Setaria viridis, the “G: Setaria viridis, herbicidal effect grade” value is recorded as 5 (Herbicidal ratio of 90% or more (almost completely withered)). In addition, the “I: Avena fatua, herbicidal effect grade” value in the data set on Avena fatua is 3 (Herbicidal ratio of 40% or higher and lower than 70%). Also, the “J: Alopecurus myosuroides, herbicidal effect grade” value in the data set with Alopecurus myosuroides [5] is 4 (Herbicidal ratio of 70% or higher and lower than 90%). Further, in the data set with Apera spica-venti [6], the “L: Apera spica-venti, herbicidal effect grade” value was 5 (Herbicidal ratio of 90% or more (almost completely withered)). Also, the “M: Abutilon theophrasti, herbicidal effect grade” value with Abutilon theophrasti is 0 (Herbicidal ratio of 5% or lower (almost no effect)). For the same molecule, the “O: Chenopodium album, herbicidal effect grade” value with Chenopodium album is reported as 0 (Herbicidal ratio of 5% or lower (almost no effect)). Moreover, the “R: Veronica persica, herbicidal effect grade” value in the data set with Veronica persica is on record as 0 (Herbicidal ratio of 5% or lower (almost no effect)). In the data set with Alopecurus myosuroides [7], the “J: Alopecurus myosuroides, herbicidal effect (criteria 0-5)” value was 4 (Herbicidal ratio of 70% or higher and lower than 90%). In addition, the “L: Apera spica-venti … (criteria 0-5)” value in the data set with Apera spica-venti [8] is reported as 5 (Herbicidal ratio of 90% or more (almost completely withered)). For the same molecule, in the data set with corn, the “c: corn, effect on crop (criteria 0-5)” value was 1 (Herbicidal ratio of 5% or higher and lower than 20%). Also, the “g: rapeseed … (criteria 0-5)” value in the data set on rapeseed was 4 (Herbicidal ratio of 70% or higher and lower than 90%).

Regarding `CC(CC1CC(OC(=O)COc2ccccc2)=C(c2c(C)cc(-c3ccc(Cl)cc3)cc2C)C1=O)=NOCC(F)(F)F` (mixture of isomers) [9-027], the “B (Scirpus juncoides) herbicidal effect grade” value in the data set with Scirpus juncoides [1] is 2 (Herbicidal ratio of 20% or higher and lower than 40%). Moreover, the “Herbicidal effect grade, A: Echinochloa oryzacola Vasing.” value in data set [2] is 3 (Herbicidal ratio of 40% or higher and lower than 70%). Moreover, in the data set on Scirpus juncoides [3], the “Herbicidal effect grade, B” value is given as 0 (Herbicidal ratio of 5% or lower (almost no effect)). Further, the “H (Echinochloa crus-galli var. crus-galli) herbicidal effect grade” value in data set [4] (Table 24) was 5 (Herbicidal ratio of 90% or more (almost completely withered)). Also, the “E herbicidal effect grade” value in the data set with Cyperus difformis (Table 24) is 5 (Herbicidal ratio of 90% or more (almost completely withered)). In addition, the “Herbicidal effect grade, G: Setaria viridis” value with Setaria viridis (setting [9]) is on record as 5 (Herbicidal ratio of 90% or more (almost completely withered)). Further, in the data set with Avena fatua (setting [9]), the “Herbicidal effect grade, I: Avena fatua” value was 4 (Herbicidal ratio of 70% or higher and lower than 90%). For the same molecule, the “Herbicidal effect grade, J: Alopecurus myosuroides” value in the data set on Alopecurus myosuroides [5] (setting [9]) is 5 (Herbicidal ratio of 90% or more (almost completely withered)). Moreover, in the data set on Apera spica-venti [6] (setting [9]), the “Herbicidal effect grade, L: Apera spica-venti” value is on record as 5 (Herbicidal ratio of 90% or more (almost completely withered)). The “Herbicidal effect grade, M: Abutilon theophrasti” value in the data set on Abutilon theophrasti (setting [9]) was 0 (Herbicidal ratio of 5% or lower (almost no effect)). Further, the “Herbicidal effect grade, O: Chenopodium album” value with Chenopodium album (setting [9]) is 3 (Herbicidal ratio of 40% or higher and lower than 70%). The “Herbicidal effect grade, R: Veronica persica” value in the data set on Veronica persica (setting [9]) is 3 (Herbicidal ratio of 40% or higher and lower than 70%). The “J: Alopecurus myosuroides, herbicidal effect grade” value in the data set with Alopecurus myosuroides [7] is given as 5 (Herbicidal ratio of 90% or more (almost completely withered)). For the same molecule, in the data set with Apera spica-venti [8], the “L: Apera spica-venti, herbicidal effect grade” value was 5 (Herbicidal ratio of 90% or more (almost completely withered)). Besides, the “c: corn, effect on crop grade” value in the data set on corn is listed as 5 (Herbicidal ratio of 90% or more (almost completely withered)). Besides, in the data set with rapeseed, the “g: rapeseed, effect on crop grade” value is 4 (Herbicidal ratio of 70% or higher and lower than 90%).
